Measured values published in patent publication US20160052926A1, “NOVEL PYRIMIDINE AND PYRIDINE COMPOUNDS AND USAGE THEREOF” (HUTCHISON MEDIPHARMA LIMITED, priority 2013, published 2016).

Key:
Recombinant human FGFR1 = Recombinant human FGFR1 (Homo sapiens, UniProt P11362); assay: Transcreener Kinase Assay of FGFR1; type: biochemical; settings: read-out: FGFR1 (FP) IC50
Recombinant human FGFR2 = Recombinant human FGFR2 (Homo sapiens, UniProt P21802); assay: Transcreener Kinase Assay of FGFR2; type: biochemical; settings: read-out: FGFR2 (FP) IC50
FGFR3 kinase = FGFR3 kinase (Homo sapiens, UniProt P22607); assay: Z-Lyte Kinase Assay of FGFR3; type: biochemical
Summary of the method: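 Kinase at 0.7 μg/ml with 4 μM Z-LYTE Tyr 4 peptide and ATP diluted to 300 uM (working solution, 1.33× buffer); compounds 1–0.00046 μM, 2% DMSO final. Kinase reaction and development each 1 h at RT (25-30[…]); coumarin (445 nm) and fluorescein (520 nm) emission read, inhibition from % phosphorylation.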

KG-1 = assay: Cellular Proliferation Assay (Cell Counting Kit-8), KG-1; type: cell-based; settings: Homo sapiens, KG1 cells, 72 hours
Summary of the method: (§1)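 Seeding was 30,000 (KG-1), 5,000 (SNU-16) or 1,000 (RT-112) cells per well, with compound added 24 h later. Dilutions were prepared as an 8-point series of 10 to 0.004 μM in 5% DMSO, before addition to wells.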

SNU-16 = assay: Cellular Proliferation Assay (Cell Counting Kit-8), SNU-16; type: cell-based; settings: Homo sapiens, SNU-16 cells, 72 hours
Summary of the method: as §1

RT-112 = assay: Cellular Proliferation Assay (Cell Counting Kit-8), RT-112; type: cell-based; settings: Homo sapiens, RT-112 cells, 72 hours
Summary of the method: as §1

Chain of Recombinant human FGFR1 (P11362 22-822): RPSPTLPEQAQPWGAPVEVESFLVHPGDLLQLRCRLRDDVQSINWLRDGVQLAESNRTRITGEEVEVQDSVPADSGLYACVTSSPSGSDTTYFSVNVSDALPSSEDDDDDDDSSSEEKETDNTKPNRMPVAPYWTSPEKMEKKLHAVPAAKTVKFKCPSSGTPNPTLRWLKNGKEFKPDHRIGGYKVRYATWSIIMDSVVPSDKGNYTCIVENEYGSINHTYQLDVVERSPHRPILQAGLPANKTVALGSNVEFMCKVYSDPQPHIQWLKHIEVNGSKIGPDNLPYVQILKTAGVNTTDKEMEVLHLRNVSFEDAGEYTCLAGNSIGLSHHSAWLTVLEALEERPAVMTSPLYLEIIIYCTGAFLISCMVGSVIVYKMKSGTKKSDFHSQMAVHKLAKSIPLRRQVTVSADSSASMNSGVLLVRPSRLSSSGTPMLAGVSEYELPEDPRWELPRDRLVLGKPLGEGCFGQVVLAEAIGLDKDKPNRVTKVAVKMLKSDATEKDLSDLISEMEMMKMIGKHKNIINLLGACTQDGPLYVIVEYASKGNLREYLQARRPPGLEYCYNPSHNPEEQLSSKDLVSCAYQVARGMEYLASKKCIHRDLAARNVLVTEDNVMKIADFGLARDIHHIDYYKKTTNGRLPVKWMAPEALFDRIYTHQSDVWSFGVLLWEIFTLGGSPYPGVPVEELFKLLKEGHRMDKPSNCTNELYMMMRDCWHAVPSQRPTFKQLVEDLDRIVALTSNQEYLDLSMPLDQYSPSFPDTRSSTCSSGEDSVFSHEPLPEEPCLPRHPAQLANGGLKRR
Chain of FGFR3 kinase (P22607 23-806): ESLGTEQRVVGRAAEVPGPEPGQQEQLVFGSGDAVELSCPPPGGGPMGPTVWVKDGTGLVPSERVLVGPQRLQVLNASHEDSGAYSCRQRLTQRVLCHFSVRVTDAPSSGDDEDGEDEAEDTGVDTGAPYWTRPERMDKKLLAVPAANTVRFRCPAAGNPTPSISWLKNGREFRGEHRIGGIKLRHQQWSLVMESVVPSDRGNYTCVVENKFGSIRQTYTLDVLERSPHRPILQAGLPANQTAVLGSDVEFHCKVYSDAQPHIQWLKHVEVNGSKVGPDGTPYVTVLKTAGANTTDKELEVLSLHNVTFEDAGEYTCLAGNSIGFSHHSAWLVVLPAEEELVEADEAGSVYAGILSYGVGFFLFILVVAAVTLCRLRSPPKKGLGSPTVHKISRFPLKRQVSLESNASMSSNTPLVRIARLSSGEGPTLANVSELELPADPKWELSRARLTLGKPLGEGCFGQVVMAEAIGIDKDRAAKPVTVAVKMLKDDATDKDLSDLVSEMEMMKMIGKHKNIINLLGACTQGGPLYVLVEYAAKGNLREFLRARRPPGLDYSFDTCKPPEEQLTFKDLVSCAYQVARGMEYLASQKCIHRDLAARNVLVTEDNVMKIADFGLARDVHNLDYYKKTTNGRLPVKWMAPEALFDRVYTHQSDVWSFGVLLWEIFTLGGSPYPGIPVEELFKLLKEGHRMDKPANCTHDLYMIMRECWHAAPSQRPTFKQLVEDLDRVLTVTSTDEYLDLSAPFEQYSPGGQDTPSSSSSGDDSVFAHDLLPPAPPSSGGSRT
Chain of Recombinant human FGFR2 (P21802 22-821): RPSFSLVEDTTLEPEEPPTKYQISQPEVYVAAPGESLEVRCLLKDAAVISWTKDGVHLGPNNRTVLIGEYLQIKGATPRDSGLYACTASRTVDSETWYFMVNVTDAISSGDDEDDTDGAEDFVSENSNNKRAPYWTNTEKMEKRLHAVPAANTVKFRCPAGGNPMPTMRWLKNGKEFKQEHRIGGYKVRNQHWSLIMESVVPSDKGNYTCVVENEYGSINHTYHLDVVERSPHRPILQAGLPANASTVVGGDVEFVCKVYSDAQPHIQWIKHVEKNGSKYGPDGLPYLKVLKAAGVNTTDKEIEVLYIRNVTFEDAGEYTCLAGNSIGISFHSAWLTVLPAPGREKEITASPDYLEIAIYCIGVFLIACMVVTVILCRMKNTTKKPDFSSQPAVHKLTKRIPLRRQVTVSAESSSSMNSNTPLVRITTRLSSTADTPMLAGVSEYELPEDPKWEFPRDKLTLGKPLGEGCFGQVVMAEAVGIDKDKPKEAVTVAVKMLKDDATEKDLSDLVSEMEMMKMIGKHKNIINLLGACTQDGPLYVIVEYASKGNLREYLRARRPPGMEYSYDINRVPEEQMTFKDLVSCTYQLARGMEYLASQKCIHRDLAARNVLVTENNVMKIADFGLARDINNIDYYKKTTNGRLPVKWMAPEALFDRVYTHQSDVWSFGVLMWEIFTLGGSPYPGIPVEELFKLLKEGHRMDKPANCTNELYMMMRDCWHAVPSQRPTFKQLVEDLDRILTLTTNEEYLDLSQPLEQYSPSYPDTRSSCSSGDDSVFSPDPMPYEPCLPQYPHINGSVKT

Row | SMILES | IC50 (Recombinant human FGFR1) [nM] | IC50 (Recombinant human FGFR2) [nM] | IC50 (FGFR3 kinase) [nM] | IC50 (SNU-16) [nM] | IC50 (KG-1) [nM] | IC50 (RT-112) [nM]
1 | CNC(=O)c1cc(CCc2cnc(Nc3ccc(CN4CCOCC4)cn3)nc2)c(F)c(OC)c1 [Compound 92, 4-fluoro-3-methoxy-N-methyl-5-(2-(2-((5-(morpholinomethyl)pyridin-2-yl)amino)pyrimidin-5-yl)ethyl)benzamide] | 164 | 40 | 198 | 238 | 255 | 831
2 | CNC(=O)c1cc(CCc2cnc(Nc3cnc4ccnn4c3)nc2)c(F)c(OC)c1 [Compound 94] | 161 | 53 | 213 | 170 | 344 | 287
3 | CNC(=O)c1cc(CCc2cnc(Nc3ccc4ncnn4c3)nc2)c(F)c(OC)c1 [Compound 95] | 34 | 12 | 33 | 33 | 44 | 72
4 | CNC(=O)c1cc(CCc2cnc(Nc3ccc(CN4CCOCC4)nc3)nc2)c(F)c(OC)c1 [Compound 98] | 32 | 15 | 26 | 24 | 48 | 225
5 | CNC(=O)c1cc(CCc2cnc(Nc3ccc(CN4CCN(C)CC4)cc3)nc2)c(F)c(OC)c1 [Compound 99] | 14 | 7 | 12 | 17 | 30 | 110
6 | CNC(=O)c1cc(CCc2cnc(Nc3cn[nH]c3)nc2)c(F)c(OC)c1 [Compound 102] | 12 | 7 | 18 | 55 | 33 | 461
7 | CNC(=O)c1cc(CCc2ccc(Nc3cnn(C)c3)nc2)c(F)c(OC)c1 [Compound 103] | 32 | 21 | 47 | 139 | 138 | 659
8 | CONC(=O)c1cc(CCc2cnc(Nc3ccc(F)cc3)nc2)cc(OC)c1 [Compound 104] | 15 | 9 | 44 | 38 | 53 | 142
9 | CNC(=O)c1cc(CCc2cnc(Nc3cnn(C)c3C)nc2)c(F)c(OC)c1 [Compound 105] | 31 | 11 | 30 | 48 | 201 | 428
10 | CCn1ncc(Nc2ncc(CCc3cc(C(=O)NC)cc(OC)c3F)cn2)c1C [Compound 110] | 68 | 14 | 24 | 46 | 95 | 197

Now from value to compound, other results behind:

Row | IC50 (Recombinant human FGFR1) [nM] | IC50 (Recombinant human FGFR2) [nM] | IC50 (FGFR3 kinase) [nM] | IC50 (SNU-16) [nM] | SMILES | IC50 (KG-1) [nM] | IC50 (RT-112) [nM]
11 | 11 | 6 | 12 | 22 | CNC(=O)c1cc(CCc2cnc(Nc3ccc(CN4CCOCC4)cc3)nc2)c(F)c(OC)c1 [Compound 97] | 26 | 159
12 | 12 | 5 | 13 | 24 | CCn1cc(Nc2ncc(CCc3cc(C(=O)NC)cc(OC)c3F)cn2)cn1 [Compound 100, 3-(2-(2-(1-ethyl-1H-pyrazol-4-ylamino)pyrimidin-5-yl)ethyl)-4-fluoro-5-methoxy-N-methylbenzamide] | 21 | 94
13 | 8 | 4 | 15 | 42 | CONC(=O)c1cc(CCc2cnc(Nc3cn[nH]c3)nc2)cc(OC)c1 [Compound 101] | 22 | 257
14 | 10 | 7 | 14 | 26 | CNC(=O)c1cc(CCc2cnc(Nc3cnn(C4CC4)c3)nc2)c(F)c(OC)c1 [Compound 107] | 28 | 90
15 | 5 | 3 | 10 | 112 | CONC(=O)c1cc(CCc2cnc(Nc3cnn(CCO)c3)nc2)cc(OC)c1 [Compound 108] | 110 | 562
